Assay results reported in the supplement of paper PMC8671470.
± gives the standard deviation of the averaged measurements.

System: HL-60
Test: cell viability (% survival relative to DMSO control); higher = less cytotoxic
Details: 0.01 µM; 72 h; co-treatment: DMSO vehicle
Summary of the method: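 Area under the curve, where listed, was derived from four-parameter log-logistic fits with drc and PharmacoGx. These fits used CellTiter-Glo viability from HL-60 cells in RPMI 1640 with 10% FBS, normalised to DMSO wells and wells holding 10 μM proteasome inhibitor. The full library was rescreened on 384-well plates in duplicate at five tenfold concentrations, 1–10,000 nM, with DMSO or 100 nM of one of three metabolic inhibitors, for 72 h at 37 °C, 5% CO2.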

Row | Structure (SMILES) | cell viability
1 | CC1Cc2ccccc2N1NC(=O)c1ccc(Cl)c(S(N)(=O)=O)c1 (centres undefined) [Indapamide] | 104 ± 4.2%
2 | NS(=O)(=O)c1ccc(S(=O)(=O)Nc2cccc3c(Cl)c[nH]c23)cc1 [Indisulam] | 95 ± 2.6%
3 | COc1ccc2c(c1)c(CC(=O)O)c(C)n2C(=O)c1ccc(Cl)cc1 [Indomethacine] | 91 ± 9.4%
4 | Cn1cc(C[C@@H](N)C(=O)O)c2ccccc21 [Indoximod] | 98.7 ± 1.6%

Same assay, conditions: 0.01 µM; 72 h; co-treatment: GSK2194069 100 nM

Row | Structure (SMILES) | cell viability
5 | OC[C@H]1N[C@@H](c2c[nH]c3c(O)ncnc23)[C@H](O)[C@@H]1O [Forodesine] | 103 ± 2.1%
6 | O=c1oc2c(cc1O)oc(=O)c1cc(O)c(O)c(O)c12 [Galloflavin] | 84.7 ± 13%
7 | Nc1ccn([C@@H]2O[C@H](CO)[C@@H](O)C2(F)F)c(=O)n1 [Gemcitabine] | 84.92 ± 0.64%
8 | N[C@@H](CCC(=O)N[C@@H](CS)C(=O)NCC(=O)O)C(=O)O [Glutathione] | 100.3 ± 0.86%
9 | Clc1cc(Cl)c(OCC#CI)cc1Cl [Haloprogin] | 107 ± 6.9%
10 | O=c1[nH]c(=O)n([C@H]2C[C@H](O)[C@@H](CO)O2)cc1I [Idoxuridine] | 100 ± 6.1%
11 | CC1Cc2ccccc2N1NC(=O)c1ccc(Cl)c(S(N)(=O)=O)c1 (centres undefined) [Indapamide] | 107.5 ± 0.58%
12 | NS(=O)(=O)c1ccc(S(=O)(=O)Nc2cccc3c(Cl)c[nH]c23)cc1 [Indisulam] | 101 ± 10%
13 | COc1ccc2c(c1)c(CC(=O)O)c(C)n2C(=O)c1ccc(Cl)cc1 [Indomethacine] | 95.9 ± 5.5%
14 | Cn1cc(C[C@@H](N)C(=O)O)c2ccccc21 [Indoximod] | 88.55 ± 0.44%

Same assay, conditions: 0.01 µM; 72 h; co-treatment: pictilisib 100 nM

Row | Structure (SMILES) | cell viability
15 | OC[C@H]1N[C@@H](c2c[nH]c3c(O)ncnc23)[C@H](O)[C@@H]1O [Forodesine] | 93.3 ± 3.5%
16 | O=c1oc2c(cc1O)oc(=O)c1cc(O)c(O)c(O)c12 [Galloflavin] | 93.7 ± 1.9%
17 | Nc1ccn([C@@H]2O[C@H](CO)[C@@H](O)C2(F)F)c(=O)n1 [Gemcitabine] | 74.5 ± 11%
18 | N[C@@H](CCC(=O)N[C@@H](CS)C(=O)NCC(=O)O)C(=O)O [Glutathione] | 96.4 ± 9.4%
19 | Clc1cc(Cl)c(OCC#CI)cc1Cl [Haloprogin] | 96.3 ± 7.1%
20 | O=c1[nH]c(=O)n([C@H]2C[C@H](O)[C@@H](CO)O2)cc1I [Idoxuridine] | 95.8 ± 0.38%
21 | CC1Cc2ccccc2N1NC(=O)c1ccc(Cl)c(S(N)(=O)=O)c1 (centres undefined) [Indapamide] | 112 ± 10%
22 | NS(=O)(=O)c1ccc(S(=O)(=O)Nc2cccc3c(Cl)c[nH]c23)cc1 [Indisulam] | 95.2 ± 6.7%
23 | COc1ccc2c(c1)c(CC(=O)O)c(C)n2C(=O)c1ccc(Cl)cc1 [Indomethacine] | 87.2 ± 13%
24 | Cn1cc(C[C@@H](N)C(=O)O)c2ccccc21 [Indoximod] | 63.4 ± 34%

Same assay, conditions: 0.1 µM; 72 h; co-treatment: AZD3965 100 nM

Row | Structure (SMILES) | cell viability
25 | OC[C@H]1N[C@@H](c2c[nH]c3c(O)ncnc23)[C@H](O)[C@@H]1O [Forodesine] | 101 ± 4.2%
26 | O=c1oc2c(cc1O)oc(=O)c1cc(O)c(O)c(O)c12 [Galloflavin] | 110 ± 11%
27 | Nc1ccn([C@@H]2O[C@H](CO)[C@@H](O)C2(F)F)c(=O)n1 [Gemcitabine] | 5.92 ± 1.7%
28 | N[C@@H](CCC(=O)N[C@@H](CS)C(=O)NCC(=O)O)C(=O)O [Glutathione] | 99.1 ± 1.7%
29 | Clc1cc(Cl)c(OCC#CI)cc1Cl [Haloprogin] | 104 ± 1.6%
30 | O=c1[nH]c(=O)n([C@H]2C[C@H](O)[C@@H](CO)O2)cc1I [Idoxuridine] | 98.5 ± 1.3%
31 | CC1Cc2ccccc2N1NC(=O)c1ccc(Cl)c(S(N)(=O)=O)c1 (centres undefined) [Indapamide] | 99.4 ± 5.3%
32 | NS(=O)(=O)c1ccc(S(=O)(=O)Nc2cccc3c(Cl)c[nH]c23)cc1 [Indisulam] | 98.8 ± 1.2%
33 | COc1ccc2c(c1)c(CC(=O)O)c(C)n2C(=O)c1ccc(Cl)cc1 [Indomethacine] | 100 ± 2.1%
34 | Cn1cc(C[C@@H](N)C(=O)O)c2ccccc21 [Indoximod] | 104 ± 4.9%

Same assay, conditions: 0.1 µM; 72 h; co-treatment: DMSO vehicle

Row | Structure (SMILES) | cell viability
35 | OC[C@H]1N[C@@H](c2c[nH]c3c(O)ncnc23)[C@H](O)[C@@H]1O [Forodesine] | 105 ± 5.4%
36 | O=c1oc2c(cc1O)oc(=O)c1cc(O)c(O)c(O)c12 [Galloflavin] | 104 ± 1.4%
37 | Nc1ccn([C@@H]2O[C@H](CO)[C@@H](O)C2(F)F)c(=O)n1 [Gemcitabine] | 7.57 ± 0.71%
38 | N[C@@H](CCC(=O)N[C@@H](CS)C(=O)NCC(=O)O)C(=O)O [Glutathione] | 99.69 ± 0.58%
39 | Clc1cc(Cl)c(OCC#CI)cc1Cl [Haloprogin] | 106 ± 3.3%
40 | O=c1[nH]c(=O)n([C@H]2C[C@H](O)[C@@H](CO)O2)cc1I [Idoxuridine] | 99.7 ± 3.8%
41 | CC1Cc2ccccc2N1NC(=O)c1ccc(Cl)c(S(N)(=O)=O)c1 (centres undefined) [Indapamide] | 101 ± 1.1%
42 | NS(=O)(=O)c1ccc(S(=O)(=O)Nc2cccc3c(Cl)c[nH]c23)cc1 [Indisulam] | 101 ± 5.8%
43 | COc1ccc2c(c1)c(CC(=O)O)c(C)n2C(=O)c1ccc(Cl)cc1 [Indomethacine] | 97.19 ± 0.53%
44 | Cn1cc(C[C@@H](N)C(=O)O)c2ccccc21 [Indoximod] | 112 ± 11%

Same assay, conditions: 0.1 µM; 72 h; co-treatment: GSK2194069 100 nM

Row | Structure (SMILES) | cell viability
45 | OC[C@H]1N[C@@H](c2c[nH]c3c(O)ncnc23)[C@H](O)[C@@H]1O [Forodesine] | 96.2 ± 1.4%
46 | O=c1oc2c(cc1O)oc(=O)c1cc(O)c(O)c(O)c12 [Galloflavin] | 104 ± 3.8%
47 | Nc1ccn([C@@H]2O[C@H](CO)[C@@H](O)C2(F)F)c(=O)n1 [Gemcitabine] | 7.69 ± 2.4%
48 | N[C@@H](CCC(=O)N[C@@H](CS)C(=O)NCC(=O)O)C(=O)O [Glutathione] | 95.1 ± 7.2%
49 | Clc1cc(Cl)c(OCC#CI)cc1Cl [Haloprogin] | 96.4 ± 4.7%
50 | O=c1[nH]c(=O)n([C@H]2C[C@H](O)[C@@H](CO)O2)cc1I [Idoxuridine] | 101 ± 3%
51 | CC1Cc2ccccc2N1NC(=O)c1ccc(Cl)c(S(N)(=O)=O)c1 (centres undefined) [Indapamide] | 94.7 ± 4.5%
52 | NS(=O)(=O)c1ccc(S(=O)(=O)Nc2cccc3c(Cl)c[nH]c23)cc1 [Indisulam] | 100 ± 6.5%
53 | COc1ccc2c(c1)c(CC(=O)O)c(C)n2C(=O)c1ccc(Cl)cc1 [Indomethacine] | 97.61 ± 0.045%
54 | Cn1cc(C[C@@H](N)C(=O)O)c2ccccc21 [Indoximod] | 115 ± 26%

Same assay, conditions: 0.1 µM; 72 h; co-treatment: pictilisib 100 nM

Row | Structure (SMILES) | cell viability
55 | OC[C@H]1N[C@@H](c2c[nH]c3c(O)ncnc23)[C@H](O)[C@@H]1O [Forodesine] | 99.5 ± 11%
56 | O=c1oc2c(cc1O)oc(=O)c1cc(O)c(O)c(O)c12 [Galloflavin] | 94.13 ± 0.21%
57 | Nc1ccn([C@@H]2O[C@H](CO)[C@@H](O)C2(F)F)c(=O)n1 [Gemcitabine] | 6.77 ± 1.7%
58 | N[C@@H](CCC(=O)N[C@@H](CS)C(=O)NCC(=O)O)C(=O)O [Glutathione] | 86.3 ± 15%
59 | Clc1cc(Cl)c(OCC#CI)cc1Cl [Haloprogin] | 107 ± 6.6%
